From US9399638B2, “Substituted pyridine compounds as CRAC modulators” (LUPIN LIMITED, priority 2012, dated 2016) come the findings set out here.

For the experiment, the system named is IL-2 secretion by Jurkat T cells. Put plainly: Inhibition of IL-2 secretion. It counts as cell-based. As to conditions: Homo sapiens; Jurkat T cells stimulated with PHA, 20 to 24 hours, IL-2 by ELISA. Here is the method:
The CRAC channel modulatory activity of the compounds were thus evaluated by measuring the secretion of IL-2 by antigen stimulated T-cells in vitro. Alternatively, such activity can also be evaluated by assay methods known to one skilled in the art.
Inhibition of IL-2 secretion: Jurkat T cells were seeded at a density of 0.5 to 1 million cells per well in RPMI medium. Test compounds from this invention were added to the cells at different concentrations. This was followed by the addition of PHA, a T cell mitogen after 10 minutes. The cells were then incubated for 20 to 24 hours in a CO2 incubator at 37° C. After incubation with the compounds, cells were centrifuged, the supernatant was collected and processed for ELISA to quantitate the amount of IL-2 secreted. A commercial ELISA kit (R&D Systems, Inc. Minneapolis, Minn., USA) was used to estimate the IL-2 concentrations. Amount of IL-2 secreted by cells stimulated with PHA was considered as a 100% maximal signal and the decrease in amount of IL-2 secreted by cells treated with the test compounds was expressed as percent inhibition of the maximal signal. The dose response data was analyzed using 4-parametric sigmoidal dose response (variable slope) curve—fit.
(In general: ELISA stands for enzyme-linked immunosorbent assay.)

SMILES strings stand for the structures.

What is called IC50 is the midpoint of a concentration-inhibition curve. High values mean weaker potency, low ones greater potency. `Cn1nc(-c2cnc(C3CC3)c(-c3ccc(C(=O)Nc4c(F)cccc4F)s3)c2)oc1=O` [Example 59, 5-(2-Cyclopropyl-5-(4-methyl-5-oxo-4,5-dihydro-1,3,4-oxadiazol-2-yl)pyridin-3-yl)-N-(2,6-difluorophenyl)thiophene-2-carboxamide] registered an IC50 of less than 100 nM.
Regarding `Cn1nc(-c2cnc(C(F)(F)F)c(-c3ccc(C(=O)Nc4c(F)cccc4F)s3)c2)oc1=O` [Example 60, N-(2,6-Difluorophenyl)-5-(5-(4-methyl-5-oxo-4,5-dihydro-1,3,4-oxadiazol-2-yl)-2-(trifluoromethyl)pyridin-3-yl)thiophene-2-carboxamide], the IC50 is less than 100 nM.
The compound `CNc1ncc(-c2nn(C)c(=O)o2)cc1-c1ccc(C(=O)Nc2c(F)cccc2F)s1` [Example 61, N-(2,6-Difluorophenyl)-5-(5-(4-methyl-5-oxo-4,5-dihydro-1,3,4-oxadiazol-2-yl)-2-(methylamino)pyridin-3-yl)thiophene-2-carboxamide] showed an IC50 of less than 100 nM.
`Cc1ncc(-c2nn(C)c(=O)o2)cc1-c1ccc(C(=O)Nc2c(F)cccc2F)n1C` [Example 62, N-(2,6-Difluorophenyl)-1-methyl-5-(2-methyl-5-(4-methyl-5-oxo-4,5-dihydro-1,3,4-oxadiazol-2-yl)pyridin-3-yl)-1H-pyrrole-2-carboxamide] showed an IC50 of 100 to 1000 nM.
As for `CCc1ncc(-c2nn(C)c(=O)o2)cc1-c1ccc(C(=O)Nc2c(F)cccc2F)n1C` [Example 63, N-(2,6-Difluorophenyl)-5-(2-ethyl-5-(4-methyl-5-oxo-4,5-dihydro-1,3,4-oxadiazol-2-yl)pyridin-3-yl)-1-methyl-1H-pyrrole-2-carboxamide], the IC50 was more than 1000 nM.
The compound `CCc1cc(-c2ccc(NC(=O)c3c(F)cccc3F)cc2)nc(-c2nn(C)c(=O)o2)c1` [Example 64, N-(4-(4-Ethyl-6-(4-methyl-5-oxo-4,5-dihydro-1,3,4-oxadiazol-2-yl)pyridin-2-yl)phenyl)-2,6-difluorobenzamide] showed an IC50 of more than 1000 nM.
Compound `CCc1cc(-c2nn(C)c(=O)o2)cnc1-c1ccc(NC(=O)c2c(F)cccc2F)cc1` [Example 65, N-(4-(3-Ethyl-5-(4-methyl-5-oxo-4,5-dihydro-1,3,4-oxadiazol-2-yl)pyridin-2-yl)phenyl)-2,6-difluorobenzamide] registered an IC50 of more than 1000 nM.
For `Cn1nc(-c2cnc(-c3ccc(NC(=O)c4c(F)cccc4F)cc3)c(C3CC3)c2)oc1=O` [Example 66, N-(4-(3-Cyclopropyl-5-(4-methyl-5-oxo-4,5-dihydro-1,3,4-oxadiazol-2-yl)pyridin-2-yl)phenyl)-2,6-difluorobenzamide] the value was 100 to 1000 nM.
With `Cn1nc(-c2cc(C3CC3)cnc2-c2ccc(NC(=O)c3c(F)cccc3F)cc2)oc1=O` [Example 67, N-(4-(5-Cyclopropyl-3-(4-methyl-5-oxo-4,5-dihydro-1,3,4-oxadiazol-2-yl)pyridin-2-yl)phenyl)-2,6-difluorobenzamide] the figure was more than 1000 nM; with `CCc1ncc(-c2ccc(NC(=O)c3c(F)cccc3F)cc2)cc1-c1nn(C)c(=O)o1` [Example 68, N-(4-(6-Ethyl-5-(4-methyl-5-oxo-4,5-dihydro-1,3,4-oxadiazol-2-yl)pyridin-3-yl)phenyl)-2,6-difluorobenzamide], more than 1000 nM.
